Test results as given in patent US20240368106A1, “HYDROXY AND ALKOXY COUMARINS AS MODULATORS OF POLRMT” (Pretzel Therapeutics, Inc., priority 2021, published 2024).

target: POLRMT (Homo sapiens (Human), UniProt O00411); assay: homogeneous TR-FRET assay of mitochondrial transcription (inhibition of POLRMT); format: biochemical; conditions: 7.5 nM POLRMT, 15 nM TFB2M, 30 nM TFAM, 0.5 nM DNA template, 500 μM NTPs, 37° C., 60 minutes
Protocol: The inhibitory activity of the compounds of the present invention against POLRMT were determined by assays based on Bergbrede, T., et al., “An adaptable high-throughput technology enabling the identification of specific transcription modulators,” SLAC Discov., 22, 378-386 (2017).
The ability of some compounds of the present invention to inhibit POLRMT were determined in a homogeneous TR-FRET Assay using high-throughput screening in a 384-well plate format. This method is used to monitor the activity of mitochondrial transcription through measurement of its product, a 407 bp long RNA transcript. Detection of the product is facilitated by hybridization of two DNA-oligonucleotide probes to specific and adjacent sequences within the RNA product sequence. Upon annealing of the probes, two fluorophores are coupled directly to an acceptor nucleotide probe (ATT0647, 5′), or introduced via a coupled streptavidin with a biotinylated donor nucleotide probe (Europium cryptate) that is brought into sufficient proximity to serve as a fluorescence-donor-acceptor pair. Thus, a FRET signal at 665 nm is generated upon excitation at 340 nm.
Proteins used as transcription factors (POLRMT: NP_005026.3, TFAM: NP_003192.1, TFB2M: NP_071761.1) are diluted from their stocks to working concentrations of 1 μM, 20 μM and 4 μM respectively, in a dilution buffer containing 20 mM Tris-HCl (pH 8.0), 200 mM NaCl, 10% (v/v) glycerol, 1 mM Dithiothreitol (DTT), 0.5 mM EDTA.
DNA template is a pUC18 plasmid with the mitochondrial light strand promotor sequence (1-477) cloned between HindIII and BamHI sites. The DNA template is restriction linearized proximal to the promotor 3′-end (pUC-LSP). The reaction mixture (10 uL) containing 7.5 nM POLRMT, 15 nM of TFB2M, 30 nM of TFAM, 0.5 nM of DNA template and 500 μM nucleotide triphosphate mix (NTPs) in a reaction buffer (containing 10 mM Tris-HCl (pH 7.5), 10 mM MgCl2, 40 mM NaCl, 10 mM DTT, 0.005% (w/v) Tween-20, 160 units/ml Rnase inhibitor and 0.1 mg/mL BSA) are dispensed to compounds in microplates, using a Thermo Multidrop® dispenser, and incubated at 37° C. in a VWR INCU-Line incubator for 60 minutes after mixing. No nucleotide triphosphate mix is added to negative control samples. Microplates with compounds to be tested in the assay are prepared from 10 mM compound stocks in 100% DMSO, equal amounts of DMSO without any compound are added to positive control and negative control samples.
During the incubation, a mix of the detection reagents is prepared in a buffer such that the enzymatic reaction is terminated due to chelating of Mg-ions and increased ionic strength, containing 50 mM Tris-HCl (pH 7.5), 700 mM NaCl, 20 mM EDTA, and 0.010% (w/v) Tween-20. Europium-streptavidin is pre-incubated with a 200-fold molar excess of a random sequence oligonucleotide to block unspecific binding of oligo, for two hours at ambient temperature in the dark. Afterwards, the blocked Europium-streptavidin is kept on ice until use.
At the end of the enzymatic reaction time, 5 μL detection oligo mix in the detection buffer is added, and assay plates are mixed and kept at ambient temperature for one hour, protected from light. The concentration of the Acceptor nucleotide oligo (e.g., ATTO647N-5′-[…]-3′) and Donor nucleotide oligo (e.g., bio-5′-AACACATCTCT(-bio)GCCAAACCCCA-bio-3′) in each assay well is 1 nM, and 3 nM, respectively.
After incubation with oligo mix, 5 μL of pre-blocked Europium-streptavidin reagent is dispensed to each assay well, assay plates are again mixed and kept at ambient temperature for one hour, protected from light.
The generated signal is measured with BMG Pherastar microtiter plate reader with a TRF light unit, using excitation at 340 nm, an integration time of 200 μs, and a delay time of 100 μs, before detection at 620 nm and 665 nm. The ratio of donor- and acceptor-fluorescence is used as a measure of the generated transcript product (i.e. enzymatic activity).

POLRMT, sequence (O00411 42-1230): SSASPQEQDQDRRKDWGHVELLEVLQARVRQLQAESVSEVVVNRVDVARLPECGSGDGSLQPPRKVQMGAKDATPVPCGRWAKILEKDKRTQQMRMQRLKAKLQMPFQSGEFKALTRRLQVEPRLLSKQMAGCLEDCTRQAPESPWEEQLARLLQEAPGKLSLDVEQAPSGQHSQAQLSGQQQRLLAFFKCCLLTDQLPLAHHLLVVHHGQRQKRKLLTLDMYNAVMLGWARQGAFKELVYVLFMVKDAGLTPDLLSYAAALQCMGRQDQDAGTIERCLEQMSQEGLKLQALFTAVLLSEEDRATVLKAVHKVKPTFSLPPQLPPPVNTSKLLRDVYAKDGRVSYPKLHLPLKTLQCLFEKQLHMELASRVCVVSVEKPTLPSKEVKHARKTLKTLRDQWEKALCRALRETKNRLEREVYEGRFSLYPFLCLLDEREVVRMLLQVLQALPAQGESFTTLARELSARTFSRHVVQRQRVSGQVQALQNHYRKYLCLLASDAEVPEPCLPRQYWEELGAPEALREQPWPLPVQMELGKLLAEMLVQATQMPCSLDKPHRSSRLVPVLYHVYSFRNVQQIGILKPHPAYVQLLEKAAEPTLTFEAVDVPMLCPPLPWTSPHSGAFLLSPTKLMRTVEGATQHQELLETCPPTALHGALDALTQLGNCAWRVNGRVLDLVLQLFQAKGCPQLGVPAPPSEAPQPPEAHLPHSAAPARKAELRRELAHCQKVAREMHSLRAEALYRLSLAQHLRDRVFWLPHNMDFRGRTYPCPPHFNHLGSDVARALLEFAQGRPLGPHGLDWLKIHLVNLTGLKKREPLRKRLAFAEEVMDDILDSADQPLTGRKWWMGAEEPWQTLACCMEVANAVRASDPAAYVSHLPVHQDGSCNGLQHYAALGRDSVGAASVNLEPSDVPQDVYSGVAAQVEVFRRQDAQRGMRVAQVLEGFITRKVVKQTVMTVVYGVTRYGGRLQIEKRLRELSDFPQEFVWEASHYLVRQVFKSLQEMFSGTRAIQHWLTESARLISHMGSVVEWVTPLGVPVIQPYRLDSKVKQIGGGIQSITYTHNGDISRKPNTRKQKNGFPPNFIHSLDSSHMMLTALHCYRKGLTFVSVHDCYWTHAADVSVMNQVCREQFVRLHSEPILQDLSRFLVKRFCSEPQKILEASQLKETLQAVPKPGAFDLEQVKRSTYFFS

| Molecule | IC50 [nM] |
| --- | --- |
| 2-((4-(2-chloro-4-fluorophenyl)-2-oxo-2H-chromen-7-yl)oxy)-3-methoxypropanamide [Example 77] | 2000 |
| COCC(C)Oc1ccc2c(-c3ccccc3C)cc(=O)oc2c1 (racemic) [Example 25, 7-((1-methoxypropan-2-yl)oxy)-4-(o-tolyl)-2H-chromen-2-one] | 300 |
| COCC(C)Oc1ccc2c(-c3ccccc3C)cc(=O)oc2c1 (single isomer, unassigned) [Example 26, 7-((1-methoxypropan-2-yl)oxy)-4-(o-tolyl)-2H-chromen-2-one] | 300 |
| Cc1ccccc1-c1cc(=O)oc2cc(OCC3CCCCO3)ccc12 (single isomer, unassigned) [Example 39, 7-((tetrahydro-2H-pyran-2-yl)methoxy)-4-(o-tolyl)-2H-chromen-2-one] | 900 |
| Cc1ccccc1-c1cc(=O)oc2cc(OCC3CCCCO3)ccc12 (single isomer, unassigned) [Example 40, 7-((tetrahydro-2H-pyran-2-yl)methoxy)-4-(o-tolyl)-2H-chromen-2-one] | 3000 |
| Cc1ccccc1-c1cc(=O)oc2cc(OC(C)C#N)ccc12 (single isomer, unassigned) [Example 43, 2-((2-oxo-4-(o-tolyl)-2H-chromen-7-yl)oxy)propanenitrile] | 1000 |
| CCC(COC)Oc1ccc2c(-c3ccccc3C)cc(=O)oc2c1 (single isomer, unassigned) [Example 46, 7-((1-methoxybutan-2-yl)oxy)-4-(o-tolyl)-2H-chromen-2-one] | 300 |
| Cc1ccccc1-c1cc(=O)oc2cc(OC3CCCOC3)ccc12 (single isomer, unassigned) [Example 49, 7-((tetrahydro-2H-pyran-3-yl)oxy)-4-(o-tolyl)-2H-chromen-2-one] | 1000 |
| COCC(C)Oc1cc(C)c2c(-c3ccccc3C)cc(=O)oc2c1 (single isomer, unassigned) [Example 59, 7-((1-methoxypropan-2-yl)oxy)-5-methyl-4-(o-tolyl)-2H-chromen-2-one] | 600 |
| COCC(Oc1ccc2c(-c3ccc(F)cc3Cl)cc(=O)oc2c1)C(N)=O (single isomer, unassigned) [Example 74, 2-((4-(2-chloro-4-fluorophenyl)-2-oxo-2H-chromen-7-yl)oxy)-3-methoxypropanamide] | 13000 |
| COCC(Oc1ccc2c(-c3ccc(F)cc3Cl)cc(=O)oc2c1)C(N)=O (single isomer, unassigned) [Example 75, 2-((4-(2-chloro-4-fluorophenyl)-2-oxo-2H-chromen-7-yl)oxy)-3-methoxypropanamide] | 2000 |
| Cc1ccccc1-c1cc(=O)oc2cc(OC(CO)C(=O)N(C)C)ccc12 (single isomer, unassigned) [Example 78, 3-hydroxy-N,N-dimethyl-2-[4-(o-tolyl)-2-oxo-2H-chromen-7-yl]oxy-propanamide] | 500 |
| Cc1ccccc1-c1cc(=O)oc2cc(OC(CO)C(=O)N(C)C)ccc12 (single isomer, unassigned) [Example 79, 3-hydroxy-N,N-dimethyl-2-[4-(o-tolyl)-2-oxo-2H-chromen-7-yl]oxy-propanamide] | 32000 |
| COCC(Oc1ccc2c(-c3ccccc3C)cc(=O)oc2c1)C(=O)NCC(F)(F)F (single isomer, unassigned) [Example 82, 3-methoxy-2-((2-oxo-4-(o-tolyl)-2H-chromen-7-yl)oxy)-N-(2,2,2-trifluoroethyl)propanamide] | 5000 |
| COCC(Oc1ccc2c(-c3ccc(F)cc3Cl)cc(=O)oc2c1)C(=O)N(C)C (single isomer, unassigned) [Example 85, 2-((4-(2-chloro-4-fluorophenyl)-2-oxo-2H-chromen-7-yl)oxy)-3-methoxy-N,N-dimethylpropanamide] | 200 |
| COCCNC(=O)C(COC)Oc1ccc2c(-c3ccccc3C)cc(=O)oc2c1 (single isomer, unassigned) [Example 87, 3-methoxy-N-(2-methoxyethyl)-2-((2-oxo-4-(o-tolyl)-2H-chromen-7-yl)oxy)propanamide] | 36000 |
| COCCNC(=O)C(COC)Oc1ccc2c(-c3ccccc3C)cc(=O)oc2c1 (single isomer, unassigned) [Example 88, 3-methoxy-N-(2-methoxyethyl)-2-((2-oxo-4-(o-tolyl)-2H-chromen-7-yl)oxy)propanamide] | 500 |
| COCC(Oc1ccc2c(-c3ccccc3C)cc(=O)oc2c1)C(=O)N1CCC1 (single isomer, unassigned) [Example 90, 7-((1-(azetidin-1-yl)-3-methoxy-1-oxopropan-2-yl)oxy)-4-(o-tolyl)-2H-chromen-2-one] | 10000 |

Results, then the molecule that gave them:

| IC50 [nM] | Molecule |
| --- | --- |
| 44000 | 2-((4-(2-chloro-4-fluorophenyl)-2-oxo-2H-chromen-7-yl)oxy)-3-methoxypropanamide [Example 76] |
| 600 | COCC(C)Oc1ccc2c(-c3ccccc3C)cc(=O)oc2c1 (single isomer, unassigned) [Example 27, 7-((1-methoxypropan-2-yl)oxy)-4-(o-tolyl)-2H-chromen-2-one] |
| 50 | Cc1ccccc1-c1cc(=O)oc2cc(OC(C)C#N)ccc12 (single isomer, unassigned) [Example 42, 2-((2-oxo-4-(o-tolyl)-2H-chromen-7-yl)oxy)propanenitrile] |
| 100 | CCC(COC)Oc1ccc2c(-c3ccccc3C)cc(=O)oc2c1 (single isomer, unassigned) [Example 45, 7-((1-methoxybutan-2-yl)oxy)-4-(o-tolyl)-2H-chromen-2-one] |
| 3000 | Cc1ccccc1-c1cc(=O)oc2cc(OC3CCCOC3)ccc12 (single isomer, unassigned) [Example 48, 7-((tetrahydro-2H-pyran-3-yl)oxy)-4-(o-tolyl)-2H-chromen-2-one] |
| 500 | COCC(C)Oc1cc(C)c2c(-c3ccccc3C)cc(=O)oc2c1 (single isomer, unassigned) [Example 60, 7-((1-methoxypropan-2-yl)oxy)-5-methyl-4-(o-tolyl)-2H-chromen-2-one] |
| 15000 | CCNC(=O)C(COC)Oc1ccc2c(-c3ccccc3C)cc(=O)oc2c1 (single isomer, unassigned) [Example 80, N-ethyl-3-methoxy-2-((2-oxo-4-(o-tolyl)-2H-chromen-7-yl)oxy)propanamide] |
| 200 | CCNC(=O)C(COC)Oc1ccc2c(-c3ccccc3C)cc(=O)oc2c1 (single isomer, unassigned) [Example 81, N-ethyl-3-methoxy-2-((2-oxo-4-(o-tolyl)-2H-chromen-7-yl)oxy)propanamide] |
| 200 | COCC(Oc1ccc2c(-c3ccccc3C)cc(=O)oc2c1)C(=O)NCC(F)(F)F (single isomer, unassigned) [Example 83, 3-methoxy-2-((2-oxo-4-(o-tolyl)-2H-chromen-7-yl)oxy)-N-(2,2,2-trifluoroethyl)propanamide] |
| > 100000 | COCC(Oc1ccc2c(-c3ccc(F)cc3Cl)cc(=O)oc2c1)C(=O)N(C)C (single isomer, unassigned) [Example 86, 2-((4-(2-chloro-4-fluorophenyl)-2-oxo-2H-chromen-7-yl)oxy)-3-methoxy-N,N-dimethylpropanamide] |
| 200 | COCC(Oc1ccc2c(-c3ccccc3C)cc(=O)oc2c1)C(=O)N1CCC1 (single isomer, unassigned) [Example 89, 7-((1-(azetidin-1-yl)-3-methoxy-1-oxopropan-2-yl)oxy)-4-(o-tolyl)-2H-chromen-2-one] |
